From PubChem BioAssay (NCI)
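All cell lines were grown in 96-well plates and treated with compound for 48 hours. TGI: total growth inhibition.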

Columns and labels:
Experiment in all cases: growth of human tumour cells (NCI), 48 h
786-0 renal = system: 786-0 renal
A498 renal = system: A498 renal
A549 NSCLC = system: A549 NSCLC
ACHN renal = system: ACHN renal
BT-549 breast = system: BT-549 breast
CAKI-1 renal = system: CAKI-1 renal
CCRF-CEM leukemia = system: CCRF-CEM leukemia
COLO 205 colon = system: COLO 205 colon
DU-145 prostate = system: DU-145 prostate
EKVX NSCLC = system: EKVX NSCLC
HCC-2998 colon = system: HCC-2998 colon
HCT-116 colon = system: HCT-116 colon
HCT-15 colon = system: HCT-15 colon
HL-60(TB) leukemia = system: HL-60(TB) leukemia
HOP-62 NSCLC = system: HOP-62 NSCLC
HOP-92 NSCLC = system: HOP-92 NSCLC
HS 578T breast = system: HS 578T breast
HT29 colon = system: HT29 colon
IGROV1 ovarian = system: IGROV1 ovarian
K-562 leukemia = system: K-562 leukemia
KM12 colon = system: KM12 colon
LOX IMVI melanoma = system: LOX IMVI melanoma
M14 melanoma = system: M14 melanoma
MALME-3M melanoma = system: MALME-3M melanoma
MCF7 breast = system: MCF7 breast
MDA-MB-231 breast = system: MDA-MB-231 breast
MDA-MB-435 = system: MDA-MB-435
MDA-N = system: MDA-N
NCI-H226 lung = system: NCI-H226 lung
NCI-H23 lung = system: NCI-H23 lung
NCI-H460 lung = system: NCI-H460 lung
NCI-H522 lung = system: NCI-H522 lung
NCI/ADR-RES ovarian = system: NCI/ADR-RES ovarian
OVCAR-3 ovarian = system: OVCAR-3 ovarian
OVCAR-4 ovarian = system: OVCAR-4 ovarian
OVCAR-5 ovarian = system: OVCAR-5 ovarian
OVCAR-8 ovarian = system: OVCAR-8 ovarian
PC-3 prostate = system: PC-3 prostate
RPMI-8226 leukemia = system: RPMI-8226 leukemia
RXF 393 renal = system: RXF 393 renal
SF-268 CNS = system: SF-268 CNS
SF-295 CNS = system: SF-295 CNS
SK-MEL-2 melanoma = system: SK-MEL-2 melanoma
SK-MEL-28 melanoma = system: SK-MEL-28 melanoma
SK-MEL-5 melanoma = system: SK-MEL-5 melanoma
SK-OV-3 ovarian = system: SK-OV-3 ovarian
SN12C renal = system: SN12C renal
SNB-19 CNS = system: SNB-19 CNS
SNB-75 CNS = system: SNB-75 CNS
SR leukemia = system: SR leukemia
SW-620 colon = system: SW-620 colon
T-47D breast = system: T-47D breast
TK-10 renal = system: TK-10 renal
U251 CNS = system: U251 CNS
UACC-257 melanoma = system: UACC-257 melanoma
UACC-62 melanoma = system: UACC-62 melanoma
UO-31 renal = system: UO-31 renal
MOLT-4 leukemia = system: MOLT-4 leukemia
SF-539 CNS = system: SF-539 CNS

CCC(Nc1ncnc2nc[nH]c12)C(=O)O (configuration not stated)
TGI (786-0 renal): > 100 µM | TGI (A498 renal): > 100 µM | TGI (A549 NSCLC): > 100 µM | TGI (ACHN renal): > 100 µM | TGI (BT-549 breast): > 100 µM | TGI (CAKI-1 renal): > 100 µM | TGI (CCRF-CEM leukemia): > 100 µM | TGI (COLO 205 colon): > 100 µM | TGI (DU-145 prostate): > 100 µM | TGI (EKVX NSCLC): > 100 µM | TGI (HCC-2998 colon): > 100 µM | TGI (HCT-116 colon): > 100 µM | TGI (HCT-15 colon): > 100 µM | TGI (HL-60(TB) leukemia): > 100 µM | TGI (HOP-62 NSCLC): > 100 µM | TGI (HOP-92 NSCLC): > 100 µM | TGI (HS 578T breast): > 100 µM | TGI (HT29 colon): > 100 µM | TGI (IGROV1 ovarian): > 100 µM | TGI (K-562 leukemia): > 100 µM | TGI (KM12 colon): > 100 µM | TGI (LOX IMVI melanoma): > 100 µM | TGI (M14 melanoma): > 100 µM | TGI (MALME-3M melanoma): > 100 µM | TGI (MCF7 breast): > 100 µM | TGI (MDA-MB-231 breast): > 100 µM | TGI (MDA-MB-435): > 100 µM | TGI (MDA-N): > 100 µM | TGI (NCI-H226 lung): > 100 µM | TGI (NCI-H23 lung): > 100 µM | TGI (NCI-H460 lung): > 100 µM | TGI (NCI-H522 lung): > 100 µM | TGI (NCI/ADR-RES ovarian): > 100 µM | TGI (OVCAR-3 ovarian): > 100 µM | TGI (OVCAR-4 ovarian): > 100 µM | TGI (OVCAR-5 ovarian): > 100 µM | TGI (OVCAR-8 ovarian): > 100 µM | TGI (PC-3 prostate): > 100 µM | TGI (RPMI-8226 leukemia): > 100 µM | TGI (RXF 393 renal): > 100 µM | TGI (SF-268 CNS): > 100 µM | TGI (SF-295 CNS): > 100 µM | TGI (SK-MEL-2 melanoma): > 100 µM | TGI (SK-MEL-28 melanoma): > 100 µM | TGI (SK-MEL-5 melanoma): > 100 µM | TGI (SK-OV-3 ovarian): > 100 µM | TGI (SN12C renal): > 100 µM | TGI (SNB-19 CNS): > 100 µM | TGI (SNB-75 CNS): > 100 µM | TGI (SR leukemia): > 100 µM | TGI (SW-620 colon): > 100 µM | TGI (T-47D breast): > 100 µM | TGI (TK-10 renal): > 100 µM | TGI (U251 CNS): > 100 µM | TGI (UACC-257 melanoma): > 100 µM | TGI (UACC-62 melanoma): > 100 µM | TGI (UO-31 renal): > 100 µM

COc1cccc(CCNc2c(C#N)c3n(c4ccccc4[n+]3C)c3ncccc23)c1
TGI (786-0 renal): 3.35 µM | TGI (A498 renal): 57 µM | TGI (A549 NSCLC): 4.04 µM | TGI (ACHN renal): 36.1 µM | TGI (BT-549 breast): 49.5 µM | TGI (CAKI-1 renal): > 100 µM | TGI (COLO 205 colon): 10.5 µM | TGI (DU-145 prostate): 11.3 µM | TGI (EKVX NSCLC): 36.5 µM | TGI (HCC-2998 colon): 3.46 µM | TGI (HCT-116 colon): 5.3 µM | TGI (HCT-15 colon): 3.74 µM | TGI (HOP-62 NSCLC): 43.8 µM | TGI (HOP-92 NSCLC): > 58.9 µM | TGI (HS 578T breast): 15 µM | TGI (HT29 colon): 3.14 µM | TGI (K-562 leukemia): > 100 µM | TGI (KM12 colon): 4.53 µM | TGI (LOX IMVI melanoma): 3.08 µM | TGI (M14 melanoma): 3.08 µM | TGI (MALME-3M melanoma): 32.6 µM | TGI (MCF7 breast): 5.13 µM | TGI (MDA-MB-231 breast): 6.89 µM | TGI (MDA-MB-435): 45.6 µM | TGI (MDA-N): 11.1 µM | TGI (MOLT-4 leukemia): 7.45 µM | TGI (NCI-H226 lung): 45.9 µM | TGI (NCI-H23 lung): > 56.5 µM | TGI (NCI-H460 lung): 3.16 µM | TGI (NCI-H522 lung): 10.3 µM | TGI (NCI/ADR-RES ovarian): > 51 µM | TGI (OVCAR-3 ovarian): 48 µM | TGI (OVCAR-4 ovarian): 10.8 µM | TGI (OVCAR-5 ovarian): 34 µM | TGI (OVCAR-8 ovarian): 3.87 µM | TGI (PC-3 prostate): 31.4 µM | TGI (RPMI-8226 leukemia): 6.59 µM | TGI (RXF 393 renal): 38.2 µM | TGI (SF-268 CNS): 38.5 µM | TGI (SF-295 CNS): 3.67 µM | TGI (SF-539 CNS): 3.55 µM | TGI (SK-MEL-2 melanoma): 43.3 µM | TGI (SK-MEL-28 melanoma): 44.1 µM | TGI (SK-MEL-5 melanoma): 28.8 µM | TGI (SK-OV-3 ovarian): 42.1 µM | TGI (SN12C renal): 32.7 µM | TGI (SNB-19 CNS): 18.8 µM | TGI (SNB-75 CNS): 12.8 µM | TGI (SR leukemia): > 100 µM | TGI (T-47D breast): 14.7 µM | TGI (TK-10 renal): 50.1 µM | TGI (U251 CNS): > 21.3 µM | TGI (UACC-257 melanoma): 46.3 µM | TGI (UACC-62 melanoma): > 59.4 µM | TGI (UO-31 renal): 12 µM
